From patent US20210069199A1, “METHODS OF TREATING TRANSPLANT REJECTION” (priority 2015, published 2021)

Key:
CSF1R = CSF1R (Homo sapiens, UniProt P07333); settings: cited from earlier work
[1] = tested on: human skin graft rejection by allogeneic human PBMC; assay: human skin/NSG mouse xenograft model of solid organ graft rejection; assay type: in vivo
Description: The inventors then evaluated whether JAK2 inhibition could prevent solid organ graft rejection, using a human skin/NSG mouse xenograft model. A 1×1 cm split-thickness human skin graft was transplanted onto the animal dorsally, followed by intraperitoneal injection of 5×10^6 allogeneic peripheral blood mononuclear cells (PBMC) 30 days after surgery.

human T-cells = assay: allogeneic mixed leukocyte reaction, T-cell proliferation; assay type: cell-based; settings: 2.5 μM, after 5 days of culture, DC:T-cell ratio 1:30; control 100%; P<0.0001
Description: (§1) This offers a platform to reduce Th17 development, while promoting Treg populations.

IRAK1 = IRAK1 (Homo sapiens, UniProt P51617); settings: cited from earlier work
myelofibrosis patients = settings: unlike JAK1/JAK2 inhibitors; cited from earlier work
[2] = tested on: IL-2 induced STATS phosphorylation; assay: IL-2 induced STAT5 phosphorylation in human CD4+ T-cells; assay type: cell-based; settings: 2.5 μM
Description: as §1

STAT3 activity by IL-6 = STAT3 activity by IL-6 in human CD4+ T-cells; assay type: cell-based; settings: 2.5 μM
Description: as §1

JAK3 = target: T1, JAK3 (Homo sapiens, UniProt P52333); settings: cited from earlier work
T1 sequence (P52333 1-1124): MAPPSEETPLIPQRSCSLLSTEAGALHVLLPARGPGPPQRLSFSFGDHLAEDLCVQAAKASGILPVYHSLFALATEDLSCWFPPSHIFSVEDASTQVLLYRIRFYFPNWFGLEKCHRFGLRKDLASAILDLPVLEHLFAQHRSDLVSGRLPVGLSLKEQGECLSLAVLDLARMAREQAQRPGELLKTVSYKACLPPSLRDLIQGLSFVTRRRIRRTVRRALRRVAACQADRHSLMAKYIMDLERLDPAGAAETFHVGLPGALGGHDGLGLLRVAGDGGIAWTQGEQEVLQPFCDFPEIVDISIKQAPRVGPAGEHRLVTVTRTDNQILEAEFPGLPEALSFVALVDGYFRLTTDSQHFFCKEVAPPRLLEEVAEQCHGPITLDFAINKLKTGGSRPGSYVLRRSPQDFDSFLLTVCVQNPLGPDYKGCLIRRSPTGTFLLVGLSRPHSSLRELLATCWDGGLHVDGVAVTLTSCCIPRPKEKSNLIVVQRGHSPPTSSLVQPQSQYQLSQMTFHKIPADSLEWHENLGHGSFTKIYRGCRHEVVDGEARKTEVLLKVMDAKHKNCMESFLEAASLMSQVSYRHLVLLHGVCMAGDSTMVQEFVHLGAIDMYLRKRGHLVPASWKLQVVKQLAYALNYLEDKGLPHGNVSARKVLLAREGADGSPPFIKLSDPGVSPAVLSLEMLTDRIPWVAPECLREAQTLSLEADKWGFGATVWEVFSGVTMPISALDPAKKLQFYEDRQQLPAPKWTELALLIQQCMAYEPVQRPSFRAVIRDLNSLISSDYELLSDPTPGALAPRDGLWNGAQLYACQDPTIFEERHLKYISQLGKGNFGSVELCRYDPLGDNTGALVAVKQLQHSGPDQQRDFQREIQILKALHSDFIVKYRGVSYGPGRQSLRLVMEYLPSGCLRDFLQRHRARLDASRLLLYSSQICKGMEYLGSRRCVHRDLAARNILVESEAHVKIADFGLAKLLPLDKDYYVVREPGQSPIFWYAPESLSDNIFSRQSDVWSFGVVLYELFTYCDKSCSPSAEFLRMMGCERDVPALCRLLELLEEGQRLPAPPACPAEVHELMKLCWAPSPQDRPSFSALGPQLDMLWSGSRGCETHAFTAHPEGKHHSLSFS

GVHD in recipient mice = assay: murine model of MHC-disparate allogeneic hematopoietic cell transplantation (GVHD); assay type: in vivo; settings: 100 mg/kg twice a day by oral gavage for 4 weeks beginning on the day of MHC-disparate allo-HCT
iTregs = assay: suppressive potency of iTregs generated with allogeneic DCs in the presence of drug; assay type: cell-based, human; settings: iTregs generated with allogeneic DCs for 5 days with drug, then cultured with self T-cell responders and fresh DCs without drug
Description: as §1

Sequence of CSF1R (P07333 20-972, species assumed): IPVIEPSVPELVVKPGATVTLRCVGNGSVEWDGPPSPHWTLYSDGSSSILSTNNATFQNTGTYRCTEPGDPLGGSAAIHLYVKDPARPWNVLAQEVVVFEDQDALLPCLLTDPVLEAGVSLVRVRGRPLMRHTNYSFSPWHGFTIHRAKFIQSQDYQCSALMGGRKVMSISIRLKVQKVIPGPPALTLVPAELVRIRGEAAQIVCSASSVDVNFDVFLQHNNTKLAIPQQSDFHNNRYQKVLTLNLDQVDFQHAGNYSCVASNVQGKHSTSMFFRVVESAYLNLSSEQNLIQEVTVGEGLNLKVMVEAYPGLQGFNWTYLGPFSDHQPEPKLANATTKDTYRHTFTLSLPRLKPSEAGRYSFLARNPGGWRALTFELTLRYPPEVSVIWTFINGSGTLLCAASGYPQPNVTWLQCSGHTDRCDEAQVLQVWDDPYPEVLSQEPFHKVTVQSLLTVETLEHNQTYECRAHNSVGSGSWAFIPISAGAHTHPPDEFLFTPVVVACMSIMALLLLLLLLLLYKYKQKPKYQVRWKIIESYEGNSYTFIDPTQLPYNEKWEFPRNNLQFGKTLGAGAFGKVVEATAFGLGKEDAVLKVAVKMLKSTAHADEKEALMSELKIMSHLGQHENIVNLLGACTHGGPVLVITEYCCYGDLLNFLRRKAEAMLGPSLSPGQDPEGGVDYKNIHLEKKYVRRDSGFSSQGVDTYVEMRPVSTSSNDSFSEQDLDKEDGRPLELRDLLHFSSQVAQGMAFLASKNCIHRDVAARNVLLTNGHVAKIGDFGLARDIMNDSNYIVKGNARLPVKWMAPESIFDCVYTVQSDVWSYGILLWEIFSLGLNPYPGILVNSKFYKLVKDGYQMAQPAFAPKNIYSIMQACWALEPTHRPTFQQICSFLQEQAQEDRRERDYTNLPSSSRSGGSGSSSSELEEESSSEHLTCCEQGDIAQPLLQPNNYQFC
Sequence of IRAK1 (P51617 whole entry, species assumed): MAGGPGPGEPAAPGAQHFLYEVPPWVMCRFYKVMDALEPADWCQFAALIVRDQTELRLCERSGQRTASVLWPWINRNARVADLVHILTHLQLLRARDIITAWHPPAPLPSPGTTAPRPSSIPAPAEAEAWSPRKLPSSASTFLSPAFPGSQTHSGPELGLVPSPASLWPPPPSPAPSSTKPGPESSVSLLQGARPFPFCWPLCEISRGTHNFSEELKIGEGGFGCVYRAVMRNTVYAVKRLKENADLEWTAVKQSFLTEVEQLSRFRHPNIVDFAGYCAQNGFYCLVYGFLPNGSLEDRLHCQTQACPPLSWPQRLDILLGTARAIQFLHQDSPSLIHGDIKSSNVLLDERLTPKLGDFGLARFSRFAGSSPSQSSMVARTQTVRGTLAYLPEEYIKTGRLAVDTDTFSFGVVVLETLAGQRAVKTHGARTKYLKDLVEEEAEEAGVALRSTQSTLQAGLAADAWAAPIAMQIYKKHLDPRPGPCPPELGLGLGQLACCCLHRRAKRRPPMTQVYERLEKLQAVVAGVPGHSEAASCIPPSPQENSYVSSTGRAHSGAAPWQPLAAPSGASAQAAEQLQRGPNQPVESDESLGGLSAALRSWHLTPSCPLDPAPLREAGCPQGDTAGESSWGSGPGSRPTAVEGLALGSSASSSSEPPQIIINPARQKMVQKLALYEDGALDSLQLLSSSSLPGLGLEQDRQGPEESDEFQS

C1=C/COCc2cc(ccc2OCCN2CCCC2)Nc2nccc(n2)-c2cccc(c2)COC/1 [pacritinib, 11-(2-Pyrrolidinl-yl-ethoxy)-14,19-dioxa-5,7,26-triazatetracyclo[19.3.1.1^2,6.1^8,12] heptacosa-1(25),2(26),3,5,8,10,12(27),16,21,23-decaene]
suppressive activity toward CSF1R (CSF1R): has suppressive activity toward JAK3, CSF1R | Day 60 survival (graft) ([1]; 100 mg/kg twice a day oral gavage for 15 days from PBMC injection, vehicle 0%): 33.3% | Median graft survival ([1]; 100 mg/kg twice a day oral gavage for 15 days from PBMC injection, vehicle 32.5 days, P=0.0011): 51 days | lymphocytic infiltration of skin graft (H&E, CD3 IHC) ([1]; skin grafts at day +21, before onset of graft rejection): reduces lymphocytic infiltration of the tissue | Mean proliferation (T-cell) (human T-cells): 23.7% | suppressive activity toward IRAK1 (IRAK1): has suppressive activity toward JAK3, CSF1R, and IRAK1 | myelosuppression (myelofibrosis patients): does not induce myelosuppression | risk for opportunistic infections (myelofibrosis patients): does not induce myelosuppression or increase risk for opportunistic infections | IL-2 induced STATS phosphorylation [2]: permitting IL-2 induced STATS phosphorylation | STAT3 activity by IL-6 (STAT3 activity by IL-6): eliminated STAT3 activity by IL-6 | suppressive activity toward JAK3 (JAK3): has suppressive activity toward JAK3 | GVHD in recipient mice (GVHD in recipient mice): significantly reducing GVHD | suppressive potency of treated iTregs versus DMSO-treated iTregs (iTregs): similar
